# Measured values from US20240285599A1, “Mature-Hepatocyte Transdifferentiation Suppressing Composition” (OSAKA UNIVERSITY, priority 2021, published 2024).
# Legend:
# L-Traf3/PtenDKO mouse = experiment: Oral NIKSMI in L-Traf3/PtenDKO mouse: liver HE staining, KRT19 immunostaining and KRT19 expression; type: in vivo; details: twice a day, 200 mg/kg
# Protocol: A histopathological slide was deparaffinized with xylene and ethanol. HE staining was performed with hematoxylin and eosin. In immunostaining, antigen activation was performed by heating in Target Retrieval Solution (Dako, USA), followed by blocking with bovine serum albumin and a reaction through use of a primary antibody at 4° C. overnight. A frozen section was dried at room temperature, and was blocked with BSA (Nacalai Tesque, Inc., Japan), followed by a reaction through use of a primary antibody in VECTASTAIN ABC Rabbit IgG Kit (Vector Laboratories, Inc., USA). DAB Substrate Kit (Vector Laboratories, Inc., USA) was used in a staining reaction. The following antibodies were used in the immunostaining: KRT19 (1:500 Abcam, ab52625), TRAF3 (1:100 Abcam, ab217033), NIK (1:400 Novus Biologicals, NBP2-23603), p-RIP3K (1:100 Genentech), and KI67 (1:1,000 Cell Signaling, #12202S). […] The number of Ki67-positive cells in a tumor was counted with ImageJ (Fiji). The immunostaining score of TRAF3 or NIK was calculated by multiplying a staining intensity (of from 0 to 3) by a stained area (%). Human ICC patients were grouped into two groups on the basis of the median immunostaining score of TRAF3 or NIK, and were evaluated for their disease-free survival (DFS) or overall survival (OS). […]
# HuCCT1 cell xenograft = experiment: HuCCT1 xenograft in NOG mouse, oral NIKSMI; type: in vivo; details: twice a day, 200 mg/kg
# Protocol: A histopathological slide was deparaffinized with xylene and ethanol. HE staining was performed with hematoxylin and eosin. In immunostaining, antigen activation was performed by heating in Target Retrieval Solution (Dako, USA), followed by blocking with bovine serum albumin and a reaction through use of a primary antibody at 4° C. overnight. A frozen section was dried at room temperature, and was blocked with BSA (Nacalai Tesque, Inc., Japan), followed by a reaction through use of a primary antibody in VECTASTAIN ABC Rabbit IgG Kit (Vector Laboratories, Inc., USA). DAB Substrate Kit (Vector Laboratories, Inc., USA) was used in a staining reaction. […] The number of Ki67-positive cells in a tumor was counted with ImageJ (Fiji). The immunostaining score of TRAF3 or NIK was calculated by multiplying a staining intensity (of from 0 to 3) by a stained area (%). Human ICC patients were grouped into two groups on the basis of the median immunostaining score of TRAF3 or NIK, and were evaluated for their disease-free survival (DFS) or overall survival (OS).
# To generate a xenograft tumor, 5×10^6 HuCCT1 cells were mixed with Matrigel at a ratio of 1:1, and the mixture was subcutaneously injected into each of NOG mice. […] During the period, the diameters of the tumors were measured every 3 days, and the tumor sizes were each calculated by using the following equation. […]
compound,measurement,setting,value
"COc1cc(C(N)=O)nc(-c2cccc(C#C[C@]3(O)CCN(C)C3=O)c2)c1 [NIKSMI, (R)-6-(3-((3-hydroxy-1-methyl-2-oxopyrrolidin-3-yl)ethynyl)phenyl)-4-methoxypicolinamide]","overgrowth of a cholangiocyte in liver (HE staining, KRT19 immunostaining)","L-Traf3/PtenDKO mouse; 14 days from age 4 weeks, liver at 6 weeks, FIG. 15A",significantly suppressed
same,expression level of the bile duct marker KRT19 in the liver,"L-Traf3/PtenDKO mouse; 14 days, FIG. 15B",significantly suppressed
same,number of Ki67-positive cells in tumors versus vehicle-administered tumors,"HuCCT1 cell xenograft; NOG mouse HuCCT1 xenograft, 14 days, FIG. 23B",significantly lower
same,growth of xenografts derived from the HuCCT1 cells (tumor size),"HuCCT1 cell xenograft; NOG mouse, 14 days from day 28 after transplantation, FIG. 23A",significantly suppressed
